Data reported in patent US20040067998A1, “Antifungal and/or antiparasitic pharmaceutical composition and novel indole derivatives as active principle of such a composition” (priority 2003, published 2004).
Converted amounts (≈) assume the structure as drawn. “And” between values parts separate entries of the source, which are not always exact repeats. Equal values may be shown once. “Also recorded” adds a separate entry of the source. Read-outs that look alike come from different tables or passages of the source.

Experiments:
[1] = test system: promastigote stage of Leishmania mexicana; assay: Antiparasitic activity on the promastigote form of Leishmania (MTT); format: cell-based; conditions: for IC50: read-out: CI50 Leishmania mexicana Promastigotes
[2] = test system: Aspergillus fumigatus (strain n°AF 980003); assay: Antifungal activity on a clinical strain of Aspergillus fumigatus (Alamar Blue microplate test); format: cell-based; conditions: strain AF980003; for MIC: read-out: CMI or CI80 Aspergillus fumigatus (AF980003)
[3] = test system: intracellular amastigote form of Leishmania mexicana; assay: Anti-leishmanian activity on the amastigote form in peritoneal macrophages of BALB/c mice; format: cell-based
[4] = test system: Candida albicans (strain n° CA980001); assay: Antifungal activity on a clinical strain of Candida albicans (MTT colorimetric microplate test); format: cell-based; conditions: for MIC / CMI or CI80 Candida albicans (CA980001): strain CA980001; for MIC: read-out: CMI or CI80 Candida albicans (CA980001); for activity of inhibition of Candida albicans (in words): summary of Tables 27 to 40
[5] = test system: Candida albicans (CA98001); assay: Antifungal activity in vivo on a model of disseminated candidiasis; design: species or system female Swiss mice
[6] = test system: Candida krusei (4 strains); assay: Antifungal activity in vitro on clinical strains of Candida: krusei (4 strains); format: cell-based; conditions: for activity against Candida krusei (in words): clinical strains, b748: one strain
[7] = test system: Candida lusitaniae (1 strain); assay: Antifungal activity in vitro on clinical strains of Candida: lusitaniae (1 strain); format: cell-based; conditions: for CI80 on clinical strains of Candida: strain CL980001 (Candida lusitaniae); for activity against Candida lusitaniae (in words): clinical strain
[8] = test system: Candida albicans (4 strains); assay: Antifungal activity in vitro on clinical strains of Candida: albicans (4 strains); format: cell-based; conditions: for activity against strains of Candida albicans (in words): clinical strains
[9] = test system: Candida parapsilosis (2 strains); assay: Antifungal activity in vitro on clinical strains of Candida: parapsilosis (2 strains); format: cell-based; conditions: for activity against Candida parapsilosis (in words): clinical strains
[10] = strain CK980001 (Candida krusei)
[11] = strain CK980003 (Candida krusei)
[12] = strain CK980004 (Candida krusei)
[13] = strain CA980001 (Candida albicans)
[14] = strain CA980002 (Candida albicans)
[15] = strain CA980003 (Candida albicans)
[16] = strain CA980005 (Candida albicans)
[17] = strain CP980001 (Candida parapsilosis)
[18] = strain CP980002 (Candida parapsilosis)
[19] = strain CK980002 (Candida krusei)

SMILES | CI80 on clinical strains of Candida [6, 10] | CI80 on clinical strains of Candida [6, 11] | CI80 on clinical strains of Candida [6, 12] | CI50 Leishmania mexicana Promastigotes ([1]; promastigotes) | IC50 ([1]; promastigotes) | CMI or CI80 Aspergillus fumigatus (AF980003) [2] | CI80 on clinical strains of Candida [7] | activity against strains of Candida albicans (in words) [8] | CI80 on clinical strains of Candida [8, 13] | CI80 on clinical strains of Candida [8, 14] | CI80 on clinical strains of Candida [8, 15] | CI80 on clinical strains of Candida [8, 16] | CI80 on clinical strains of Candida [9, 17] | CI80 on clinical strains of Candida [9, 18] | MIC [4] | activity of inhibition of Candida albicans (in words) [4] | CI80 on clinical strains of Candida [6, 19] | activity against Candida lusitaniae (in words) [7] | CMI or CI80 Candida albicans (CA980001) [4] | also measured
Brc1ccc(C(Cn2ccc3ccccc32)n2ccnc2)cc1 (stereo not drawn) [Cpsé 84, 1-[2-(4-Bromophenyl)-2-(1H-imidazol-1-yl)ethyl]-1H-indole] |  |  |  |  |  |  |  |  |  |  |  |  |  |  |  |  |  |  |  | activity against Leishmania mexicana (in words) [1]: most active; IC50 ([1]; Leishmania mexicana): 0.16 µg/mL and 370 nM; MIC ([2]; Aspergillus fumigatus): > 100 µM; activity against the intracellular amastigote form of Leishmania (in words) [3]: very active; IC50 ([3]; Leishmania mexicana, Peritoneal macrophage, intracellular amastigote form, read-out: CI50 Intracellular amastigotes): 3.1 ± 0.04 µg/mL (≈ 8.46 µM); MIC ([4]; Candida albicans, 24 h): > 100 µM
OC(Cn1cncn1)(Cn1cncn1)c1ccc(F)cc1F [Fluconazole, fluconazole, reference compound] |  |  |  |  |  |  |  |  |  |  |  |  |  |  |  |  |  |  |  | survival at D10 ([5]; mouse, in vivo): 100%; MIC ([4]; Candida albicans, 24 h at 37° C., MTT): 0.07 µM (≈ 0.0214 µg/mL); CMI or CI80 Candida albicans (CA980001) ([4]; 24 h at 37° C., MTT): 0.02 µg/mL
OC(Cn1ccnc1)(Cn1ccc2ccccc21)c1ccc(Cl)cc1Cl (stereo not drawn) [compound 75] | 620 ± 2 nM | >1000 nM | 4200 ± 100 nM | 1.47 µg/mL (≈ 3.81 µM) | 4000 nM | 4 ± 0 μM and 1 ± 0 μg/mL | 300 ± 100 nM | active | <1 nM | 650 ± 10 nM | 640 ± 10 nM | 710 ± 10 nM | 1000 ± 100 nM | 860 ± 40 nM | <0.001 µM | most active |  |  |  | activity against Candida krusei (in words) [6]: active; activity on survival at the end of the experiment (D14) (in words) ([5]; Test N°1, 20 mg/kg/d for 5 d): not on survival at the end of the experiment; activity on the survival at D4-D5 (in words) ([5]; Test N°1, 20 mg/kg/d for 5 d): slight activity; survival improved compared to the control batch ([5]; Test N°1, day 8 (D8), daily dose of 20 mg/kg): 25%; survival at D14 ([5]; Test N°2, 2 × 30 mg/kg/d for 5 d intraperitoneally): Compound 75: no survival at end of experiment (D14).; effect of treatment on the survival of the animals (in words) ([5]; Test N°2, 2 × 30 mg/kg/d for 5 d intraperitoneally, monitored 14 days (78: from D9 to D14)): ineffective
OC(Cn1ccnc1)(Cn1ccc2ccccc21)c1ccc(F)cc1 (stereo not drawn) [compound 76] | 65380 ± 3710 nM | 85270 ± 324 nM | >100000 nM | 3 ± 0.03 µg/mL (≈ 8.95 µM) | 9200 ± 90 nM | 88 ± 2 μM and 30 ± 0.7 μg/mL | 690 ± 80 nM | very active | 67 ± 5 nM | 610 ± 22 nM | 250 ± 110 nM | 440 ± 44 nM | 4100 ± 350 nM | 6320 ± 140 nM | 0.08 µM (≈ 0.0268 µg/mL) | most active | 38050 ± 7240 nM | very active | 0.03 µg/mL | 
OC(Cn1ccnc1)(Cn1ccc2ccccc21)c1ccc(Br)cc1 (stereo not drawn) [compound 73] | 650 ± 10 nM | 92270 ± 3900 nM | >100000 nM | 2.7 ± 0.08 µg/mL (≈ 6.81 µM) | 6650 ± 220 nM |  | 630 ± 10 nM | active; also recorded: very active | 60 ± 2 nM | 630 ± 16 nM | 550 ± 96.3 nM | 530 ± 22 nM | 670 ± 0 nM | 4650 ± 110 nM | 0.06 µM (≈ 0.0238 µg/mL) | most active | 12810 ± 2220 nM | very active | 0.02 µg/mL | activity against Candida krusei (in words) [6]: active; also recorded: very active; MIC [2]: >100 µM; activity against Candida parapsilosis (in words) [9]: very active
CC(C)(C)c1ccc(Cn2cc(Cn3ccnc3)c3ccccc32)cc1.O=C(O)/C=C/C(=O)O [7f] |  |  |  |  |  |  |  |  |  |  |  |  |  |  |  |  |  |  |  | CI50 Leishmania mexicana Promastigotes [1]: 3.9 ± 0.09 µg/mL; activity against Leishmania mexicana (in words) [1]: strong activity; IC50 [1]: 8400 ± 500 nM; CMI or CI80 Aspergillus fumigatus (AF980003) ([2]; Alamar Blue): 70 ± 3 μM and 32.17 ± 3 μg/ml; MIC ([4]; 24 h at 37° C., MTT): >100 µM
OC(Cn1ccnc1)(Cn1ccc2ccccc21)c1ccc(Cl)cc1 (stereo not drawn) [compound 74] | 59290 ± 1330 nM | >100000 nM | >100000 nM | 5 ± 0.2 µg/mL (≈ 14.2 µM) | 15000 ± 600 nM | 83 ± 4 μM and 29 ± 1 μg/mL | 630 ± 10 nM | very active | 61 ± 4 nM | 470 ± 17 nM | 70 ± 4.7 nM | 300 ± 24 nM | 690 ± 30 nM | 3710 ± 1246 nM | 0.07 µM (≈ 0.0246 µg/mL) | most active | 7740 ± 130 nM | very active | 0.02 µg/mL | activity against Candida parapsilosis (in words) [9]: very active
